According to ChEMBL document CHEMBL3988442, “University of Dundee, Small-Polar-MMV Screening Library” (2021):
Where “and” joins values, the source holds several entries; their conditions need not be identical. Equal values may be shown once.

How the values were obtained:
[1] = biological target: T1, Tyrosyl-tRNA synthetase, putative (Trypanosoma cruzi (strain CL Brener), UniProt Q4DSP6); assay: Trypanosoma cruzi tyrosyl tRNA synthetase (TcYRS) SOP; assay type: functional
T1 sequence (Q4DSP6 whole entry): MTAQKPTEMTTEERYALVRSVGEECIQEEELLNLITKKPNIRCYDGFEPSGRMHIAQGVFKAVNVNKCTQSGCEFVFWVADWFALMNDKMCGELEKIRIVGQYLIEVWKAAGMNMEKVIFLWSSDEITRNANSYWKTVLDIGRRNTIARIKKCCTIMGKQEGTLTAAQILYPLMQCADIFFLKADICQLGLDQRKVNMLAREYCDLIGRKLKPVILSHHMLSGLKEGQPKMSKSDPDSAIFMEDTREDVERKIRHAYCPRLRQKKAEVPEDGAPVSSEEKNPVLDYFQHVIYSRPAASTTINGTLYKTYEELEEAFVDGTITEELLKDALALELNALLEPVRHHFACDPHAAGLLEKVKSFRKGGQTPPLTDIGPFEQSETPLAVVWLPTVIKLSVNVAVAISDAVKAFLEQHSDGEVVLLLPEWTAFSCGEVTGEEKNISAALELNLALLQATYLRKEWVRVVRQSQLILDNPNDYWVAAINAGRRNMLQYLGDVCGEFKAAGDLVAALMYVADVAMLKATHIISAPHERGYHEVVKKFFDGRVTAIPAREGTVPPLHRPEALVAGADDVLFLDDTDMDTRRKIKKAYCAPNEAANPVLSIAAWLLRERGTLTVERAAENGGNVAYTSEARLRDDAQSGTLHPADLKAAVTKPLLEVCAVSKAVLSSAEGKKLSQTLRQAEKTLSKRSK

[2] = biological target: T1, Tyrosyl-tRNA synthetase, putative; assay: Trypanosoma cruzi tyrosyl tRNA synthetase (TcYRS) _High Tyrosine SOP; assay type: functional
Leishmania donovani = assay: Leishmania intramacrophage assay; assay type: functional, organism-based; conditions: Leishmania donovani
Histidine--tRNA ligase [3] = biological target: T2, Histidine--tRNA ligase (Leishmania infantum, UniProt A4I591); assay: Leishmania infantum Histidine tRNA synthetase (LdHisRS); assay type: functional
T2 sequence (A4I591 whole entry): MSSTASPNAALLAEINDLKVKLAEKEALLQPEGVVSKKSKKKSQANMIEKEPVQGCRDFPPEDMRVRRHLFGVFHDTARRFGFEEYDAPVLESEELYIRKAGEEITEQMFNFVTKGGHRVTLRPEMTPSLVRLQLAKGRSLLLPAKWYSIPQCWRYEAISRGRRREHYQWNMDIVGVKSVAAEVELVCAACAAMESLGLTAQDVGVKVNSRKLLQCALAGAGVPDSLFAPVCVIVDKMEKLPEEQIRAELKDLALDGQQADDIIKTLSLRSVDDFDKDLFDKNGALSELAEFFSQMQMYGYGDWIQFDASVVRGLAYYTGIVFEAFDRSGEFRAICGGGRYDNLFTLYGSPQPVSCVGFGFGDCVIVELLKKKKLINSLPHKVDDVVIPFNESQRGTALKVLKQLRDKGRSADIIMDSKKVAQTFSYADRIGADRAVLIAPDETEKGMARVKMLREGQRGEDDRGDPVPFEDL

Plasmodium falciparum = assay: Calibr Malaria Delayed Death Assay SOP; assay type: functional, organism-based
Histidine--tRNA ligase [4] = biological target: T3, Histidine--tRNA ligase (Trypanosoma cruzi (strain CL Brener), UniProt Q4DA54); assay: Trypanosoma cruzi histidyl tRNA synthetase (Tc-HisRS); assay type: functional
T3 sequence (Q4DA54 whole entry): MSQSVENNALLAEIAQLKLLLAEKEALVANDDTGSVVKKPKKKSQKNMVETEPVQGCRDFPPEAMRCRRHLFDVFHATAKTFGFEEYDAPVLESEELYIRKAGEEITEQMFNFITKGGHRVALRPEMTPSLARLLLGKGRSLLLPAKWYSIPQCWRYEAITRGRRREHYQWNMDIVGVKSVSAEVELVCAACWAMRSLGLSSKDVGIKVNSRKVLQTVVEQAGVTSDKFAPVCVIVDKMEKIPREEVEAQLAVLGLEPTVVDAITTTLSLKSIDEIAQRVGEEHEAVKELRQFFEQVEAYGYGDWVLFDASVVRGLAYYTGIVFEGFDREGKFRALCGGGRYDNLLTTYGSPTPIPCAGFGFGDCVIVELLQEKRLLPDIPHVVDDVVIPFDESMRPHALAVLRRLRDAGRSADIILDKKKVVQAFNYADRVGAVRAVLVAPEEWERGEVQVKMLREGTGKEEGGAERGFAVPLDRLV

[5] = To identify inhibition of the IFN signalling (Jak-Stat) pathway via expression of an eGFP reporter gene under the control of an IFN-stimulated response element (ISRE) containing MxA promoter.; assay type: functional, Homo sapiens
Proteasome subunit beta = biological target: T4, Proteasome subunit beta (Trypanosoma cruzi, UniProt O96673); assay: Trypanosoma cruzi proteasome chymotrypsin-like activity (TcProtChymo) assay.; assay type: functional
T4 sequence (O96673 whole entry): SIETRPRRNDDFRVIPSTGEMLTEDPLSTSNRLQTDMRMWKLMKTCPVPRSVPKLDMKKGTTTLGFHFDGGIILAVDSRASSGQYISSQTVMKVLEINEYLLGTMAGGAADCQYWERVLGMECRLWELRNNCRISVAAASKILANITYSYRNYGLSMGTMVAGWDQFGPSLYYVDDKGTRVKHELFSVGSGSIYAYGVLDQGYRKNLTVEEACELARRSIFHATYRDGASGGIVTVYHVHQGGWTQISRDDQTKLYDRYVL

Shiga toxin 2 = biological target: T5, Shiga toxin 2 (Escherichia coli O157:H7, UniProt P09385+P09386); assay: E. coli 0.157:H7 Shiga Toxin SOP - stx2 screening assay; assay type: functional
T5 sequence (P09385 whole entry): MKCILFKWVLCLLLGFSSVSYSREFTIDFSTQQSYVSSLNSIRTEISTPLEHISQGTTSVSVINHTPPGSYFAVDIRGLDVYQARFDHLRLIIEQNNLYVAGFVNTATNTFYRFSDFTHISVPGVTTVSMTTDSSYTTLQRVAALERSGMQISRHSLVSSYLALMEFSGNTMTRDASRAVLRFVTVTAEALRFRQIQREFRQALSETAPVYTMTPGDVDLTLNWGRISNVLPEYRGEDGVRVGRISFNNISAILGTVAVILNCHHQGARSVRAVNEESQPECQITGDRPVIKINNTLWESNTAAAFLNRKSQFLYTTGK
T5 sequence (P09386 whole entry): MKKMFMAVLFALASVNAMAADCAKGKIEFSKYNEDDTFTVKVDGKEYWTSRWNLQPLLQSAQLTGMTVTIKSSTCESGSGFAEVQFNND

[6] = In vitro enzyme assay to detect hydrolysis of chlorophenol red-beta-D-[…] directly proportional to the number of Toxoplasma stably expressing beta-galactosidase; assay type: functional, organism-based, Toxoplasma gondii; conditions: Toxoplasma gondii
[7] = microbe, parasite or virus in culture; conditions: Mycobacterium tuberculosis, 96 h, read-out: pIC50 (converted)
[8] = microbe, parasite or virus in culture; conditions: Mycobacterium tuberculosis, 72 h, read-out: pIC50 (converted)
[9] = Trypanosoma cruzi proteasome luciferase counter-screen; assay type: functional, N/A
[10] = biological target: T6, Aspartate--tRNA(Asp/Asn) ligase (Mycobacterium tuberculosis (strain ATCC 25618 / H37Rv), UniProt P9WFW3); assay: Assay for Asp RNA synthetase-1 from Mycobacterium tuberculosis; assay type: functional
T6 sequence (P9WFW3 whole entry): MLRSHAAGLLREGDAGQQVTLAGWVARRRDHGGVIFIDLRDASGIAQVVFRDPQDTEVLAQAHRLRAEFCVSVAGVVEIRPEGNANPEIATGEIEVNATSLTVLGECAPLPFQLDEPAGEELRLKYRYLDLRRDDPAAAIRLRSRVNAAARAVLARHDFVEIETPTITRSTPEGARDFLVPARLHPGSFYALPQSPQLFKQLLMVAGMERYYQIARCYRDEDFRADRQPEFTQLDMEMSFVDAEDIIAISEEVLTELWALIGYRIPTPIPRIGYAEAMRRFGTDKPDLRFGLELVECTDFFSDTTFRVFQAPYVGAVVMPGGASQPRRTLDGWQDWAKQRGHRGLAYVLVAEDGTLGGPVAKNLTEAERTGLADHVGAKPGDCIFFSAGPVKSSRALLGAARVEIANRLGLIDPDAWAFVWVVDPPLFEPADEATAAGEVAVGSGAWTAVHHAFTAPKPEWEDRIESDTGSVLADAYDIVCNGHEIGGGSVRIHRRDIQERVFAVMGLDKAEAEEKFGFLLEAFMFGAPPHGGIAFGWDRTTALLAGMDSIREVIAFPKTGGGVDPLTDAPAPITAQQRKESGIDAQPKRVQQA

Schistosoma mansoni = assay: High throughput screening of compounds against Schistosoma mansoni motility; assay type: functional; design: dose or concentration left out as unconfirmed
[11] = biological target: Protein translocase subunit SecA (Escherichia coli (strain K12), UniProt P10408); assay: Assay to Identify E. coli SecA ATPase Inhibitors; assay type: functional
Protein translocase subunit SecA, sequence (P10408 whole entry): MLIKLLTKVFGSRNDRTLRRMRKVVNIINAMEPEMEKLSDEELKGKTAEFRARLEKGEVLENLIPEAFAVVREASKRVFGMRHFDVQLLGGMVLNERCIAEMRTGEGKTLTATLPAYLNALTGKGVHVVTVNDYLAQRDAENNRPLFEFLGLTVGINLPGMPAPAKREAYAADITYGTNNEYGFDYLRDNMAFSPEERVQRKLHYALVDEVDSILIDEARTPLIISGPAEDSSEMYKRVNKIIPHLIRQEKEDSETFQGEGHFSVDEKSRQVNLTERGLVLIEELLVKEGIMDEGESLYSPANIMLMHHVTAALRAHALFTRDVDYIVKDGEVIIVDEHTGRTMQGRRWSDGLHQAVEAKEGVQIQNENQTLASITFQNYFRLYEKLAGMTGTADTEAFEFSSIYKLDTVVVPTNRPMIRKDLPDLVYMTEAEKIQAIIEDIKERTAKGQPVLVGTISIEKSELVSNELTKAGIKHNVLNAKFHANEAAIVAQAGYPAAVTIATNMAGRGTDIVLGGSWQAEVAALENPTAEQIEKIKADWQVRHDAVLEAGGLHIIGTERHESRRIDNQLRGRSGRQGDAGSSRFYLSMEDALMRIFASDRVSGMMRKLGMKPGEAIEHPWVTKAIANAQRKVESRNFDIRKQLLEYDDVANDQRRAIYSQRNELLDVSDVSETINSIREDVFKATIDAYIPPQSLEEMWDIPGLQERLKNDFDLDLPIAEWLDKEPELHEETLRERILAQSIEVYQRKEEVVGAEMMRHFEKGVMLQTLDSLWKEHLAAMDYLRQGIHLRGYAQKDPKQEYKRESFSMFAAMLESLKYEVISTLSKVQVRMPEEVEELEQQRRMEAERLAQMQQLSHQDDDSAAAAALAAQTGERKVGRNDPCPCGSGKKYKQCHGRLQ

Lysine--tRNA ligase = Lysine--tRNA ligase (Plasmodium falciparum (isolate 3D7), UniProt Q8IDJ8); assay: Pf-KRS-1 (Lysyl-RNA Synthetase-1, KRS-1, cytosolic KRS) from Plasmodium falciparum. Inhibitor assay, 384 well plate, luminescence read.; assay type: functional
Lysine--tRNA ligase, sequence (Q8IDJ8 whole entry): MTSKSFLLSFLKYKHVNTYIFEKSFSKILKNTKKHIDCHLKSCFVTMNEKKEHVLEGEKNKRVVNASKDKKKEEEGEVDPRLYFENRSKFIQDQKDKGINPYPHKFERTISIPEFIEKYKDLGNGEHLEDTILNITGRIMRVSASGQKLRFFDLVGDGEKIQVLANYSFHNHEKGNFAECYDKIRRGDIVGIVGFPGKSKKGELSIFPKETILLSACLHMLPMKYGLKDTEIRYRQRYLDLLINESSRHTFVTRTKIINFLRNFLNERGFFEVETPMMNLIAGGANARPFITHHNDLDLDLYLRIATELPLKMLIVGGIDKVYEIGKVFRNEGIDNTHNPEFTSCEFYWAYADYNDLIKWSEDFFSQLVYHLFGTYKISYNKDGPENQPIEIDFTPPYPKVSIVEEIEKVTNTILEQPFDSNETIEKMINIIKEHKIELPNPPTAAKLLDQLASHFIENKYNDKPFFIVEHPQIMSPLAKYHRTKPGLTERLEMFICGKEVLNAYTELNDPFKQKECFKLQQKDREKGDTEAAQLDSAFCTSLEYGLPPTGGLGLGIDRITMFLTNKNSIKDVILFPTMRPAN

Compound	IC50 [1]	IC50 [2]	IC50 (Histidine--tRNA ligase [3])	further results
O=C(NC1CC1)c1ccc2ccc(N3CCN(CC4CC4)CC3)n2c1	> 100 µM	41.1 µM and > 100 µM	–	IC50 (Leishmania donovani): > 50.1 µM
O=C(O)C(F)(F)F.c1cnc(N2CCC3(CC2)CN(CC2CC2)c2ccccc23)nc1	16.3 µM and 16.2 µM	19.4 µM and 17.9 µM	9.51 µM and 9.98 µM	pIC50 (Plasmodium falciparum): 6.09; IC50 (Plasmodium falciparum; Plasmodium falciparum): 1.26 µM; IC50 (Histidine--tRNA ligase [4]): 32.3 µM and 19.9 µM
Fc1cccc(Oc2ccc(CNCC3CNc4ccnn4C3)cn2)c1 (centres undefined)	> 100 µM	> 100 µM	> 100 µM	–
Cc1cccnc1NC(=O)NCc1ccc(N2CCNC(=O)C2)cc1	53.1 µM and 32.9 µM	52 µM and 31.6 µM	19.7 µM and 15 µM	–
O=C(C1=CCCC1)N1C[C@H](Oc2cccnc2)[C@H]2OCCC[C@H]21	> 100 µM	> 100 µM	–	–
Cc1noc(NC(=O)c2ccc(OC(F)(F)F)cc2)n1	–	–	–	pIC50 [5]: 5.092; IC50 (Proteasome subunit beta): 4.36 µM and 4.71 µM; IC50 (Shiga toxin 2): > 100 µM; IC50 [6]: 4.96 µM; IC50 [7]: 36.6 µM; IC50 [8]: 20 µM; pIC50 [9]: 5.158 and 4.98
CN(CC1CC1)c1ccc2ccc(C(=O)NCCN3CCOCC3)cn12	> 100 µM	94.4 µM and > 100 µM	–	IC50 (Leishmania donovani): > 50.1 µM
Cn1nc2c(cc1=O)CN(CC(=O)Nc1ccc(Cl)cn1)CC2	–	–	19 µM and 22.2 µM	IC50 [10]: 90 µM and > 100 µM; Percent Effect (Schistosoma mansoni): -19.3%
Cc1noc(NC(=O)c2ccc(Br)cc2)n1	–	–	–	pIC50 [5]: 4.648 and 4.809; IC50 (Shiga toxin 2): > 100 µM; IC50 [6]: 9.76 µM
NC[C@H]1CC[C@H](C(NC(=O)c2cccc(F)c2)c2ccccn2)CC1 (some centres undefined)	76 µM and > 100 µM	> 100 µM and 87.7 µM	51 µM and 44.2 µM	–
CC1(C)OCC(CNC(=O)c2cnn(-c3ccc(Cl)cc3)c2N)O1 (centres undefined)	–	–	–	IC50 (Shiga toxin 2): > 100 µM; IC50 [11]: > 100 µM
COCCN(C)C(=O)Cn1cccc(OC)c1=O	–	–	> 100 µM	IC50 [10]: > 100 µM
COc1ccc(C2SC(C)=Nc3c2c(=O)[nH]n3C2CCCCC2)cc1O (centres undefined)	> 100 µM	> 100 µM	–	–
CCn1nc2c(cc1=O)CN(Cc1nc(-c3ccccn3)no1)CC2	–	–	40 µM and 50.3 µM	IC50 [10]: > 100 µM; IC50 (Lysine--tRNA ligase): > 50.1 µM
CN1CCc2nc(C3CCN(C(=O)CCC4CCCC4)CC3)ncc2C1	46.4 µM and 43.1 µM	45.5 µM and 43.7 µM	–	IC50 (Proteasome subunit beta): > 100 µM; pIC50 [9]: < 4
